# Patent publication US11198696B2, “Substituted xanthines as inhibitors of transient receptor potential cation channel subfamily c, member 5 activity” (Boehringer Ingelheim International GmbH, priority 2018, dated 2021)
# pIC50: −log10 of the molar value.
# Molecular target: T1, TRPC5 (Homo sapiens, UniProt Q9UL62)
# T1 construct: expressed in transfected cells; host or cells: HEK293 TREx cells, inducible TRPC5 expression, induced 20-48 hours
# T1 sequence (Q9UL62 1-973): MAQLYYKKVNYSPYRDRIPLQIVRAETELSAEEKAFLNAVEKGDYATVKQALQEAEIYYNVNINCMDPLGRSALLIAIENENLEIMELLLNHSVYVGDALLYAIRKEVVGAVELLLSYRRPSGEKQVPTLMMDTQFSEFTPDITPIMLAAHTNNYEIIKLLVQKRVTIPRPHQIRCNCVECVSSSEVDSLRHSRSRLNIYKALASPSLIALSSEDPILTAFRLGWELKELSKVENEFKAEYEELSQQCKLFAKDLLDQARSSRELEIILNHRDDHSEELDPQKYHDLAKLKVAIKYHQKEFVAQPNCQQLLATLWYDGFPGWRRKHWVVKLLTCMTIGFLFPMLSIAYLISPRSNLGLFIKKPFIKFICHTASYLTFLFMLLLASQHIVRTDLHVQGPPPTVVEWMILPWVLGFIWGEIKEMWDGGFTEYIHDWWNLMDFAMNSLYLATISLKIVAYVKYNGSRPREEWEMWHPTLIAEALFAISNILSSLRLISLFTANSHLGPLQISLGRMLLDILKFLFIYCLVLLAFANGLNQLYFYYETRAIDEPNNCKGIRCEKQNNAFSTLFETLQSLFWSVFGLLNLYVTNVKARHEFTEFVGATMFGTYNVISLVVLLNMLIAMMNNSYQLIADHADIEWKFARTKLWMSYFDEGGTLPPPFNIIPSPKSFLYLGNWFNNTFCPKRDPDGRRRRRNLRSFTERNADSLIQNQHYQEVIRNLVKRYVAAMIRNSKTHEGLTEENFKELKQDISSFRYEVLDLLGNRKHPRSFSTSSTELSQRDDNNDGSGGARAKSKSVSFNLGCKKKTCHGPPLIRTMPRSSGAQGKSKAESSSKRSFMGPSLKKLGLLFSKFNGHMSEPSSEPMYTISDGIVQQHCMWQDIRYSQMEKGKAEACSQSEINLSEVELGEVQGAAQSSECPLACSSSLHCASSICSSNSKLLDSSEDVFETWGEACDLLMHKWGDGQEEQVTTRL
# Assay: Assay A: Determination of TRPC5-Inhibition (whole-cell patch clamp)
# Format: cell-based
# Settings: LaCl3-activated current
# Description: Assay A: Determination of TRPC5-Inhibition
# Patch clamp experiments permit the detection of currents through the TRPC5 channel in a cell line. In normal whole-cell patch clamp recordings, a glass electrode is brought into contact with a single cell and a high-resistance (gigaohm) seal is established with the cell membrane. The membrane is then ruptured to achieve the whole-cell configuration, permitting control of the voltage of the cell membrane and measurement of currents flowing across the membrane using the amplifier attached to the electrode and resulting in the replacement of cytoplasm with the pipette solution. A perfusion system permits control of the extracellular solution, including the addition of blockers and activators of the current. The current can be activated by including 1.4 μM free Ca2+ in the pipette (intracellular) solution, and 80 μM LaCl3 in the extracellular solution.
# TRPC5 cells were induced 20-48 hours, removed from growth plates, and replated at low density (to attain good single-cell physical separation) on glass coverslips for measurement. In some cases, cells were grown in low density overnight on glass coverslips. Patch clamp recordings were made in the whole-cell mode with a holding potential of −40 mV. Every 5 seconds, a voltage ramp was applied from −120 to +100 mV, 400 ms in duration. Currents elicited were quantified at −80 mV and +80 mV. The internal solution consisted of 140 mM cesium aspartate, 10 mM HEDTA, 2 mM CaCl2, 2.27 mM MgCl2 and 10 mM HEPES, pH 7.2, with 1,400 nM calculated free Ca2+. The external solution consisted of 150 mM NaCl, 4.5 mM 15 KCl, 1 mM MgCl2, 2 mM CaCl2, 10 mM HEPES, 10 mM glucose, 1 mM EGTA, pH 7.4. Upon addition of LaCl3, TRPC5 current was induced only in TRPC5-expressing cells and not in parental HEK293 TREx cells. Removal of the LaCh stimulus causes most of the current to go away. Potential blockers were tested for ability to block both inward and outward currents in the continued presence of LaCl3.
# IC50 of a compound of the invention was estimated by testing the compound 500 nM. […] Compounds blocking 50% or more at 500 nM are retested at multiple concentrations, and the % block is fitted by standard equations to determine IC50 accurately, using a 5/6 point concentration-response experiment.
# [1] = compounds of the present invention, TRPC5-expressing HEK293 TREx cells
# [2] = closest prior art compounds of WO2014/143799, TRPC5-expressing HEK293 TREx cells
Compound,pIC50 [1],pIC50 [2]
CCn1c(=O)n(CCCO)c(=O)c2c1nc(-c1ccc(OC3CCC3)nc1C)n2Cc1ccccc1 [Example 52],8.80,
CCn1c(=O)n(CCCO)c(=O)c2c1nc(-c1ccc(OC3CCC3)nc1)n2Cc1ccc(Cl)cc1F [Example 53],8.80,
CCn1c(=O)n(CCCO)c(=O)c2c1nc(-c1ccc(OC3CCC3)nc1)n2Cc1ccc(C(F)(F)F)cc1 [Example 54],8.80,
CCn1c(=O)n(CCCO)c(=O)c2c1nc(-c1ccc(OC3CCC3)nc1)n2Cc1ccc(C)cc1 [Example 55],8.67,
CCn1c(=O)n(CCCO)c(=O)c2c1nc(-c1ccc(OC3CCC3)nc1)n2Cc1ccc(F)c(F)c1 [Example 56],8.58,
C#Cc1ccc(Cn2c(-c3ccc(OC4CCC4)nc3)nc3c2c(=O)n(CCCO)c(=O)n3CC)cc1 [Example 57],8.57,
CCn1c(=O)n(CCCO)c(=O)c2c1nc(-c1ccc(OC3CCC3)nc1)n2Cc1cc(F)cc(F)c1 [Example 58],8.44,
CCn1c(=O)n(CCCO)c(=O)c2c1nc(-c1ccc(OC3C[C@@H]4C[C@@H]4C3)nc1C)n2Cc1ccc(F)cc1 (stereo partly drawn) [Example 59],8.76,
CCn1c(=O)n(CCCO)c(=O)c2c1nc(-c1ccc(OC3CCC3C)nc1C)n2Cc1ccccc1 (stereo not drawn) [Example 60],8.68,
CCn1c(=O)n(CCCO)c(=O)c2c1nc(-c1ccc(OC3CCCC3)nc1C)n2Cc1ccccc1 [Example 61],8.62,
CCn1c(=O)n(CCCO)c(=O)c2c1nc(-c1ccc(OC3CCC3)nc1F)n2Cc1ccc(F)cc1 [Example 62],8.47,
CCn1c(=O)n(CCCO)c(=O)c2c1nc(-c1ccc(OC3CCC3C)nc1)n2Cc1ccccc1 (stereo not drawn) [Example 63],8.50,
CCn1c(=O)n(CCCO)c(=O)c2c1nc(-c1ccc(OC3CCC3)nc1)n2Cc1ccc(F)cc1 [Example 64],8.57,
"COc1ccc(-c2nc3c(c(=O)n(CCCO)c(=O)n3C)n2Cc2ccccc2)cc1 [Example 441 in WO2014/143799, reference compound]",,6.49
"COc1ccc(-c2nc3c(c(=O)n(CCCO)c(=O)n3C)n2Cc2ccc(F)cc2)cc1 [Example 465 in WO2014/143799, reference compound]",,7.28
